{"source": "patent US11666562B2", "about": "“Ilaprazole for inhibiting the release of enveloped viruses from cells” (Northwestern University, priority 2020, dated 2023)", "key": {"[1]": {"system": "HSV-1", "experiment": "Release of HSV-1 from infected Vero cells, plaque assay", "assay_type": "cell-based, Herpes simplex virus-1 (Kos strain)", "details": "different concentrations, repeated 4 times", "method": "(§1) We infected Vero cells with HSV-1 and HSV-2 for two hours at a multiplicity of infection (MOI in pfu\\cell) of 0.1 to assay the antiviral activity of tenatoprazole. Following infection, cells were treated with different concentrations of tenatoprazole. After 24 or 48 h the media fractions were collected and released virus titers were determined by standard plaque assays (30). Tenatoprazole caused a 3-log drop of HSV-1 and 4-5 log drop of HSV-2 in released infectious virus from Vero cells at 24 hours after infection in a dose dependent manner (Table 1, shown in FIG. 5, columns 2 and 3) with calculated EC50's ranging from 48-80 μM. Total virus titer was also determined to differentiate between virus released into the media and infectious particles present in cell lysate. […] The concentrations of tenatoprazole that blocked virus release were nontoxic to Vero cells as determined by a 96® AQueous One Solution cell proliferation assay reagent (Table 1, shown in FIG. 5, column 7). Taken together, tenatoprazole inhibited levels of both released and infectious virus particles without affecting cell viability at effective concentrations.\n(§2) Herpesvirus infection of Vero cells. Vero cells (0.8×10^6 cells/well of a 6-well plate) were infected with HSV-1 or HSV-2 at a MOI of 0.1 pfu/cell in DMEM with 1% serum for two hours in the C02 incubator at 37° C. In one experiment looking at the effect of tenatoprazole on HSV-2 release from cells 24 and 48 h a MOI of 3 pfu/cell was used. The cell supernatants were aspirated and replaced with 1 ml (24 h) or 2 ml (48 h and 72 h) of DMEM with 1% serum with DMSO or different concentrations of drug (tenatoprazole, ilaprazole, or analogs) dissolved in DMSO. After 24 or 48 h incubation, the cell supernatant was collected and frozen at −80° C. Virus titer in the cell media fraction was determined by standard plaque assays using 10-fold serial dilutions of cell supernatants of Vero cells and incubated for 48 h after which cells were fixed and stained to count the plaques (22). For determination of total virus (extracellular+cytoplasmic), virus infected cells were incubated for 24 h with and without drug presence, then the plate of cells were subjected to 3 cycles of freeze/thawing (−80° C./37° C.) 30 min each prior to collecting the supernatant after centrifugation for measurement of total virus titer. Virus titer was measured by standard plaque assay as above.\n(§3) Drug potency and cell toxicity. EC50 calculations were determined by using AAT Bioquest's EC50 calculator. Cell toxicity at different concentrations of drugs as indicated was determine using the Cell Proliferation Reagent WST-1 (Roche Diagnostics) or cellular 96® Aqueous One Reagent viability reagent according to manufacturer's instructions. For 293T cells, the concentration of DMSO was 0.2% or less and assays were carried out with DMEM with 10% serum. Cell toxicity experiments were repeated twice."}, "[2]": {"system": "HSV-2", "experiment": "Release of HSV-2 from infected Vero cells, plaque assay", "assay_type": "cell-based, Herpes simplex virus-2(A/B-G)", "details": "for Anti-HSV-2 activity (release from Vero cells), in words: Table 2, 24 h", "method": "as §1\nTo examine the effects of the compounds on the release of HSV-2 from Vero cells, we infected the cells with virus two hours prior to treatment with media containing different concentrations of compound. We incubated the cells for 24 or 48 hours and then collected the cell media fractions.\nas §2, §3"}, "[3]": {"system": "HIV-1", "details": "earlier reports (refs 5, 29); cited from earlier work"}, "[4]": {"molecular_target": "T1, Tsg101-UEV (Tsg101 amino acids 1-145) (Homo sapiens, UniProt Q99816)", "T1 construct": "The recombinant Tsg101 fragment (amino acids 1-145), prepared as described above in Materials and Methods; His6 (N); thrombin protease cleavage site (N); made in house; host or cells: E. coli ROSETTA 2 (DE3) pLysS", "T1 sequence (Q99816 1-145)": "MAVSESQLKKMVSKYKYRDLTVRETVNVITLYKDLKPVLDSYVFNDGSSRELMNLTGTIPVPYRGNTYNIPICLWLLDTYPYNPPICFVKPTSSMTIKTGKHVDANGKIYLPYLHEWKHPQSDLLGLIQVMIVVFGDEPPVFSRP", "experiment": "Fluorescence thermal shift (FTS) assay, binding to Tsg101-UEV", "details": "FTS, Sypro-Orange, no DTT", "method": "The fluorescence-based thermal shift assay is based on the observation that a protein unfolds upon heating, exposing the hydrophobic residues within its tertiary structure. The unfolding temperature (Tm) is determined by the protein's primary sequence and solution environment. The FTS assay uses a fluorescent dye sensitive to a hydrophobic environment to probe protein stability and its modulation by small molecule ligands. The dye has a low fluorescence quantum yield when in a polar environment. Once in contact with the hydrophobic core normally buried within a folded protein that has become exposed during the thermal unfolding (melting) process, the quantum yield of the dye increases, thus providing a reporting signal. Furthermore, a protein's stability can be affected by ligand binding, resulting in an increase or decrease in its melting temperature. FTS assay uses the Tm shift upon binding of a ligand to identify hit compounds for drug discovery.\nIdentification of prazole compounds that bind the UEV ubiquitin-binding domain of Tsg101. We screened chemical compounds using a fluorescence thermal shift (FTS) assay (27, 28) to identify small molecules that bind directly to a truncated form of Tsg101 (amino acids 1-145) which contains the Ubiquitin E2 variant (UEV) ubiquitin-binding domain (FIG. 1). The UEV, which contains the PT/SAP binding domain in addition to the ubiquitin-binding domain, provides chaperone functions to HIV-1 Gag that is independent of its interaction with the PS/TAP motif, and contains the prazole binding site (5). This truncated Tsg101, called Tsg101-UEV, was used because full-length Tsg101 has significant solubility issues in aqueous solution. Tsg101 is an adaptor protein and thus lacks a readily deployable functional assay, making FTS a tractable approach to identify interacting compounds. FTS monitors protein thermal denaturation using SYPRO-Orange, a dye which fluoresces when bound to hydrophobic surfaces, which allows monitoring of the changes in hydrophobic surface exposure during protein denaturation (27). Since ligand binding affects protein thermal stability, it can be detected through modulation of protein thermal denaturation (melting) as a shift in melting temperature (Tm). Tsg101-UEV has a well-defined melting curve suitable for FTS. We used the FTS assay to identify compounds that bind to Tsg101-UEV.\nPurification of Tsg101 (1-145). N-terminally His6-tagged Tsg101 UEV domain (amino acids 1-145), called Tsg101-UEV, was encoded in a pET-28b vector (Novagen—EMD Millipore), which also included a thrombin protease cleavage site (His6-Thrombin Site-Tsg101, 1-145). Tsg101-UEV was grown in LB broth with Kanamycin (30 μg/ml) in ROSETTA 2 (DE3) pLysS E. coli competent cells (EMD Millipore) and induced with 1 mM IPTG at room temperature for 3 h. Bacteria were collected by centrifugation at 4,000 rpm for 10 min at […]. Bacteria were suspended in 50 ml binding buffer (20 mM Tris-HCl, pH 7.9, 0.5 M NaCl, 5 mM Imidazole) with 1 mM PMSF, 0.1% NP40, and a Protease Inhibitor Cocktail Tablet (Roche) and sonicated for 3.5 min on ice. The sonicate was spun at 9,000 rpm for 1 h at […] in a Sorvall centrifuge. The supernatant was collected and passed through a 1.5 ml Ni-NTA Agarose column. The column was washed with 20 mM Tris-HCl, pH 7.9, 0.5 M NaCl, 30 mM Imidazole wash buffer. […] Protein concentration was determined with a Nano Drop Spectrophotometer at […]. […]"}}, "note": "pEC50: −log10 of the molar value.", "data": [{"smiles": "NC(CO)C(=O)NNCc1ccc(O)c(O)c1O", "note": "(stereo not shown) [benserazide (K21), benserazide]", "values": [{"measurement": "Effect on release of HSV-1 from VERO cells", "setting": "[1]", "value": "did not appear to affect release of virus from cells"}]}, {"smiles": "COc1ccc2nc([S@@+]([O-])Cc3ncc(C)c(OC)c3C)[nH]c2c1", "note": "[esomeprazole]", "values": [{"measurement": "pEC50", "setting": "[2]; Human alphaherpesvirus 2, Vero cells, MOI 0.1, 24 h, read-out: EC50, inhibition of HSV-2 release", "value": 3.85}, {"measurement": "Inhibition of release of infectious HIV-1 from 293T cells", "setting": "[3]", "value": "quantitatively inhibit the release"}]}, {"smiles": "COc1ccc2nc([S+]([O-])Cc3c(C)c(OC)c(C)c[n+]3[O-])[nH]c2c1", "note": "(stereo not shown) [omeprazole-N-oxide]", "values": [{"measurement": "Anti-HSV-2 activity (release from Vero cells), in words", "setting": "[2]", "value": "inactive"}, {"measurement": "Tm (melting temperature) shift of Tsg101-UEV", "setting": "[4]", "value": "did not cause a detectable thermal shift"}]}, {"smiles": "COc1ccnc(C[S+]([O-])c2nc3ccc(OC(F)F)cc3[nH]2)c1OC", "note": "(stereo not shown) [pantoprazole]", "values": [{"measurement": "Anti-HSV-2 activity (release from Vero cells), in words", "setting": "[2]", "value": "inactive"}]}, {"smiles": "COCCCOc1ccnc(C[S+]([O-])c2nc3ccccc3[nH]2)c1C", "note": "(stereo not shown) [rabeprazole]", "values": [{"measurement": "Anti-HSV-2 activity (release from Vero cells), in words", "setting": "[2]", "value": "inactive"}]}]}
